Source: patent publication US11674967B2, “Method of identifying potential inhibitors of APO TNFα trimers” (UCB BIOPHARMA SRL, priority 2015, dated 2023)

Assays:
TNFR2 = experiment: Membrane TNF - TNFR2 signalling (NS0-mTNF cells with expanded primary human T cells); format: cell-based; conditions: compound bound to membrane TNFα on NS0 cells
Description: A murine B cell line (NS0-mTNF) stably expressing non-cleavable human membrane TNF due to a mutation at the TACE cleavage site was used to trigger TNFR2 signalling in PHA-L and IL-2 expanded primary human T cells. […] TNFR1 was also present on these cells but was blocked using a UCB mouse anti-human-TNFR1 antibody 5R16.
NS0-mTNF cells were cultured with 10 μM NCEs for 1 hour to allow binding of Compounds to membrane TNF. T cells were then mixed with the NS0-mTNF cells and following a brief spin to allow cell-cell contact, cells were incubated for 5 min and then lysed in lysis buffer. […] First TRAF-2 recruitment to the TNFR2 receptor was measured in Co-immunoprecipitation experiments as a measure of membrane proximal signalling. After lysis of cells TNFR2 was isolated from the lysate using polyclonal goat anti-human TNFR2 antibodies followed by protein G sepharose bead purification. TNFR2 associated TRAF-2 was then measured in immunoblots after running the purified TNFR2 preparation on a SDS-PAGE. In addition, the whole cell lysate was also sampled for the presence of pNFκB using SDS-PAGE and pNFκB specific immunoblots.
• PBMC from 3 three different donors were cultured in 6 well plates with 10×10^6 cells per well in 5 ml of RPMI1640 supplemented with 10% FCS, 1% human serum, HEPES GlutaMAX, 25 U/ml hIL-2 (Roche) and 2 μg/ml PHA-L (Sigma) to grow out T cells • after 3 days cells were resuspended and cultured in 75 cm^2 flasks with the same media as above, but lacking the PHA-L • growth of culture was monitored and media was changed every 3 days.
This is a 2× solution • prepare 500 μl of 10×10^6 NS0-wt cells • After 1 h add 500 μl human T cells (50×10^6 cells/test) in human media at 37° C. T cells were preincubated for 15 min @37° C. with 50 μg/ml 5R16 anti-TNFR1 Fab-PEG to block signalling via TNFR1 prior adding to the NS0 cells. […]

TNFα = TNFα (Homo sapiens, UniProt P01375); experiment: Surface plasmon resonance kinetics of compound binding to immobilised TNFα
Chain of TNFα (P01375 77-233 limits assumed): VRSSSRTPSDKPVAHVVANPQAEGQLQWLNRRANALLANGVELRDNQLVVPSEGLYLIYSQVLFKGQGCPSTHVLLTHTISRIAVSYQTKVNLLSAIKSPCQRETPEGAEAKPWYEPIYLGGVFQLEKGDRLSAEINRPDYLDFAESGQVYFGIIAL
Description: Surface plasmon resonance was used to measure the association rate, the dissociation rate and the affinity of the compounds of formulae (3) and (15) for TNFα (FIGS. 12A and B). For the purpose of this study a Biacore T100/T200 was used.
TNFα was immobilised at pH5 to a level of 5-8 KRU onto a CMS sensor in HBS-P buffer (10 mM HEPES pH 7.4, 0.15 M NaCl, 0.005% Surfactant P20, BIAcore, GE Healthcare). The TNFα was then equilibrated in HBS-P with 5% DMSO for at least 5 hours. The samples were diluted from 10 mM stocks into DMSO matched buffer and left to solubilise for at least 5 hours. The flow rate was […].
This assay was performed by adding 4 or 5 concentrations of compound starting from a highest concentration of 25 μM for compound of formula (3) and 1 μM for compound of formula (15) and then serially diluting this sample. Background subtraction binding curves were analysed using the BIAevaluation software following standard procedures. Binding, affinity and kinetic parameters were determined using Biacore software. The kinetic data were fitted using the levenberg marquardt algorithm.

[1] = system: TNFα-induced IL-8 production; experiment: TNFα-induced IL-8 production by human monocytes; format: cell-based; conditions: TNFα ~1 ng/ml, 18 hours
Description: Venous blood from healthy donors was collected by venupuncture into sodium/heparin containing tubes (BD Biosciences). Peripheral blood mononuclear cells (PBMC) were isolated by density gradient centrifugation with Ficoll Paque (Amersham Biosciences). Briefly, 10 mL of blood was diluted 1:1 (v/v) with RPMI 1640 (Gibco) and carefully layered onto 20 mL Ficoll Paque. Cells were spun down for 30 minutes (min) at 470 g, the PBMC collected, washed once in RPMI 1640 and any remaining contaminating erythrocytes lysed in erythrocyte lysis buffer (1 g/L KHCO3, 8.3 g/L NH4Cl, 0.0372 g/L EDTA). Isolation of monocytes from the PBMC was performed using CD14+ Magnetic MicroBeads (Miltenyi Biotec) according to the manufacturer's instructions. Briefly, PBMC were resuspended in Dulbecco's modified Eagle's medium containing 5% BSA (Sigma) and 2 mM EDTA (Sigma) at 1×10^7 cells/ml. […] of CD14 MicroBeads per 10^7 total cells were incubated for 15 min at room temperature. The magnetic separation was performed using a LS column (Miltenyi Biotec). […]
Human IL-8 was measured in the cell culture supernatants using enzyme-linked immunosorbent assay (ELISA) kits from R&D Systems Ltd. according to the manufacturer's instructions. […] Plates were read at a wavelength of 630 nm with correction at 470 nm.

Row | SMILES | TNFR2 specific membrane proximal (TRAF-2 recruitment to TNFR2) and downstream (pNFκB) signalling (TNFR2) | dissociation rate constant (koff) (TNFα) | kon (TNFα) | IC50 [1]
1 | Cc1ccc(C)c(Cn2c(C(O)c3ccncc3)nc3ccc(-c4cnn(C)c4)cc32)c1 (stereo not shown) [Compound 15] | does not impair |  |  | 
2 | Cc1ccc(C)c(Cn2c(C(O)c3ccncc3)nc3ccccc32)c1 (stereo not shown) [Compound 3] |  | 9.46 e^−5 s^−1 | 2.668 e^3 M^−1 s^−1 | 454 nM
